The values below come from article PMC5341033, “Transcriptomic insight into terpenoid and carbazole alkaloid biosynthesis, and functional characterization of two terpene synthases in curry tree (Murraya koenigii)” (Scientific Reports, 2017).

Each structure is given as a SMILES string.

In one assay the target is T1, MkTPS2 (Murraya koenigii, UniProt A0A1U9M7X9).
T1 construct: full-length ORF, 560 aa; E. coli Rosetta-2; Ni-NTA purified
Description: terpene synthase assay, SPME GC-MS of products. The format is biochemical. The note with it: 70 μM FPP; 1 mM MgCl2, 5 mM DTT, 30 mM HEPES pH 7.5, 30 °C 2 h; product (E,E)-α-farnesene.

The next assay has as its target T2, MkTPS1 (Murraya koenigii, UniProt A0A1U9M7Y9).
T2 construct: plastid transit peptide truncated at Met-40; full length 602 aa; E. coli Rosetta-2; Ni-NTA purified
Description: terpene synthase assay, SPME GC-MS of products. Format: biochemical. The note with it: 70 μM GPP; 1 mM MgCl2, 5 mM DTT, 30 mM HEPES pH 7.5, 30 °C 2 h; product (−)-sabinene.

T2 sequence (A0A1U9M7Y9 entry or part of it): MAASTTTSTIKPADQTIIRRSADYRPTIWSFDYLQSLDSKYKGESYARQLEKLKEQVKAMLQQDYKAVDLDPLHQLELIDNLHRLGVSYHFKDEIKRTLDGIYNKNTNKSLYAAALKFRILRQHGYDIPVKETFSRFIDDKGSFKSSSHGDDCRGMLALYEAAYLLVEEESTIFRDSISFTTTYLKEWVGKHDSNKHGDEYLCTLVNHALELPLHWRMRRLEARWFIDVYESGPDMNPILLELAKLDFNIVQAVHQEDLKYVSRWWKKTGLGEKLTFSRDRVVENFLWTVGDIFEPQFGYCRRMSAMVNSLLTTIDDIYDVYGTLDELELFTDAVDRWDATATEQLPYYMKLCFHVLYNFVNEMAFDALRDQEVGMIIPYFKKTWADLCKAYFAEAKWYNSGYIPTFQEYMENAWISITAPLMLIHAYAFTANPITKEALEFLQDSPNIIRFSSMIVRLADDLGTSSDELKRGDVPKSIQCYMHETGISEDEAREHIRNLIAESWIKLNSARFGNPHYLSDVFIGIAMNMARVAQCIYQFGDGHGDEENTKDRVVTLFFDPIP
T1 sequence (A0A1U9M7X9 entry or part of it): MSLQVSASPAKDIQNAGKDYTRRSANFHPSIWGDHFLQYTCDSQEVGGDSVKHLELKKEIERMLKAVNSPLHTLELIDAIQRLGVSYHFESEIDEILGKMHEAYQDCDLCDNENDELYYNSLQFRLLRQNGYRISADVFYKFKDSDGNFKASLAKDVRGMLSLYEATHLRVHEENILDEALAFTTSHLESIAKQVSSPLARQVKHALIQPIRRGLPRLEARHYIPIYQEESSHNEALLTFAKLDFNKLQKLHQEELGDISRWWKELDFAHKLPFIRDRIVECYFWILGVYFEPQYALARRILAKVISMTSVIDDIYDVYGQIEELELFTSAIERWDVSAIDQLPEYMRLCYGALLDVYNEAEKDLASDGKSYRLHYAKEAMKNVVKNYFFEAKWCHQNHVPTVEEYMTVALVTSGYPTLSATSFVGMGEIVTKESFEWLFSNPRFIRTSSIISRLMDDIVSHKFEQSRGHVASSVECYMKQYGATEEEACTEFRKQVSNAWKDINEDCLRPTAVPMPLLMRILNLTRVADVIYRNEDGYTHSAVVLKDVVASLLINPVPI

Take `CC(C)=CCC/C(C)=C/CC/C(C)=C/COP(=O)(O)OP(=O)(O)O` [farnesyl diphosphate]: the “terpene synthase assay, SPME GC-MS of products” value at MkTPS2 was “MkTPS2, the product analysis showed the formation of α-farnesene with FPP as substrate”.
For the compound `CC(C)=CCC/C(C)=C/COP(=O)(O)OP(=O)(O)O` [geranyl diphosphate], on MkTPS1, the “terpene synthase assay, SPME GC-MS of products” value was “MkTPS1 showed the formation of predominantly sabinene utilizing GPP as substrate”.
